Test results published in patent publication US9296725B2, “Heterocyclyl pyrimidine analogues as TYK2 inhibitors” (Cellzome Limited, priority 2012, dated 2016).

Key:
JAK2 = target: T1, JAK2 (Homo sapiens, UniProt O60674); assay: Kinobeads assay, JAK2 (competition binding in mixed Molt4/Ramos cell lysate, dot blot detection); details: read-out: JAK2 Band (Kinobeads assay potency, IC50)
T1 construct: endogenous in cells; host or cells: Molt4 (ATCC CRL-1582) and Ramos (ATCC CRL-1596), mixed lysate 1:2
Outline: (§1)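 Competition binding: compound dilutions (1:3 series, 9 steps) plus immobilized aminopyrido-pyrimidine beads incubated 3 h in the cold with mixed Molt4/Ramos lysate (1:2) at 10 mg/mL protein. Bead-bound JAK2/TYK2 eluted and quantified by antibody dot blot with infrared detection; IC50 from dose-response curves.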

TYK2 = target: T2, TYK2 (Homo sapiens, UniProt P29597); assay: Kinobeads assay, TYK2 (competition binding in mixed Molt4/Ramos cell lysate, dot blot detection); details: Kinobeads assay, Molt4/Ramos lysate; read-out: TYK2 Band (Kinobeads assay potency, IC50)
T2 construct: endogenous in cells; host or cells: Molt4 (ATCC CRL-1582) and Ramos (ATCC CRL-1596), mixed lysate 1:2
Outline: as §1

T2 sequence (P29597 whole entry): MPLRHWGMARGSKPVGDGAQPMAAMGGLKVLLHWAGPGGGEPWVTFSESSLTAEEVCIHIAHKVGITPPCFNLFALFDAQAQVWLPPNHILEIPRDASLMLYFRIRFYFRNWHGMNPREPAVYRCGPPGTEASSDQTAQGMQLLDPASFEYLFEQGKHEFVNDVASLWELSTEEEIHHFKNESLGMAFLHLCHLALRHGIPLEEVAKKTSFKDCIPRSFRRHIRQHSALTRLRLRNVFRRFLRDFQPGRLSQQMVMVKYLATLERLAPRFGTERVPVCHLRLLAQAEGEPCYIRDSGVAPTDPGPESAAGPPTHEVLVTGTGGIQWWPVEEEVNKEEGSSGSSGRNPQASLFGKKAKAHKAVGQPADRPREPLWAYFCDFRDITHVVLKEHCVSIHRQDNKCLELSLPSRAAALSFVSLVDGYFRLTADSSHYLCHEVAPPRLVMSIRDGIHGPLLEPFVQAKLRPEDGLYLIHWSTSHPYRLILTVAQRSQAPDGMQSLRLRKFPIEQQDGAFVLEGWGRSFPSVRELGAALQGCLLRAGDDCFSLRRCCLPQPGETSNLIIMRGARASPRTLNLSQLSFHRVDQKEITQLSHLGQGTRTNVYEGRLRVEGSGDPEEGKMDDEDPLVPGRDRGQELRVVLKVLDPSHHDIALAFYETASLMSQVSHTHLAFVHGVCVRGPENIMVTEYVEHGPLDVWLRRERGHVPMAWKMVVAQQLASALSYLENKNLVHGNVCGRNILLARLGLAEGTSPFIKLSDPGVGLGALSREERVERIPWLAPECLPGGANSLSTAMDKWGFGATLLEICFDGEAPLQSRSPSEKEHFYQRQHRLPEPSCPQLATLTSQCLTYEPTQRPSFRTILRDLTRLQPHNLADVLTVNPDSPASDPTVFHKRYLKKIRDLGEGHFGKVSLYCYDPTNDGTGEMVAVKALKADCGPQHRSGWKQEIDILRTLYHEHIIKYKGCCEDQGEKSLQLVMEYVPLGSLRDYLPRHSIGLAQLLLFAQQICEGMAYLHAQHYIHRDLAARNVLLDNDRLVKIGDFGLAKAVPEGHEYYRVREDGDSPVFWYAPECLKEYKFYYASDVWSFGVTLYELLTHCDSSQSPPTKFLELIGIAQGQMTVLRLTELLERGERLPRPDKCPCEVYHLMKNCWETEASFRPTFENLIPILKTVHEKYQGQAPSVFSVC
T1 sequence (O60674 whole entry): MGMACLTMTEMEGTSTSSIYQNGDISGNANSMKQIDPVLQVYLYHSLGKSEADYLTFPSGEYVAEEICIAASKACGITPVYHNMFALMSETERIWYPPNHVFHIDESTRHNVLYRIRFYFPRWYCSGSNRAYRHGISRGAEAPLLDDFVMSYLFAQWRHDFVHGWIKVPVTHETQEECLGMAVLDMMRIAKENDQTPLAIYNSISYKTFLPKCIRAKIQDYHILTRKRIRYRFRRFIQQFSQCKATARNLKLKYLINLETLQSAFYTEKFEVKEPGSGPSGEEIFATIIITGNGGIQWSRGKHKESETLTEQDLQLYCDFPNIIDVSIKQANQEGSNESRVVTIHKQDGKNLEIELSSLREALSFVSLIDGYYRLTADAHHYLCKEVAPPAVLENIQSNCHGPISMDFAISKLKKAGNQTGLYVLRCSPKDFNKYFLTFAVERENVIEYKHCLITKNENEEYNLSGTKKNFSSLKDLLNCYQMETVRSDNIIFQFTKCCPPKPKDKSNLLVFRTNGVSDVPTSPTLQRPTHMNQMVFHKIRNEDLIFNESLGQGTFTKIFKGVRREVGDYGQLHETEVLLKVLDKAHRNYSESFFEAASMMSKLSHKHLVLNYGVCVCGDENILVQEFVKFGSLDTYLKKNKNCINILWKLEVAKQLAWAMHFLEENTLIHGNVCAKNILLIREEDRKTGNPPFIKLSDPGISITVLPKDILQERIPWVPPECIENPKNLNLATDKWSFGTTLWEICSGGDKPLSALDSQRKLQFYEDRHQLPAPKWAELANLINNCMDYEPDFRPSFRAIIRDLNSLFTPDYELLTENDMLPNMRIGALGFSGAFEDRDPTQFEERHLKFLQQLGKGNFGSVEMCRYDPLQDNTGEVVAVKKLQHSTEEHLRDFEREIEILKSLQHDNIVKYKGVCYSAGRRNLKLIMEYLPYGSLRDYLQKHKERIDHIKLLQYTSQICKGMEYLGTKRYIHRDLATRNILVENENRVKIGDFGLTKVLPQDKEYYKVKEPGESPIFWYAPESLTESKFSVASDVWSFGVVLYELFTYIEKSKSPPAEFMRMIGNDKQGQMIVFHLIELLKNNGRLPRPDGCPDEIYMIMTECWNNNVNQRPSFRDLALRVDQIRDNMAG

| Structure (SMILES) | IC50 (JAK2) | IC50 (TYK2) |
| --- | --- | --- |
| O=C(O)Cn1cc(Nc2ncc(Cl)c(NCc3ccccc3)n2)cn1 [Example I-222] | 1000 to 10000 nM | 100 to 1000 nM |
| Fc1ccc(F)c(CNc2nc(Nc3cnn(C(F)F)c3)ncc2Cl)c1 [Example I-223] | 100 to 1000 nM | 100 to 1000 nM |
| CCOC(=O)Cn1cc(Nc2ncc(Cl)c(NCc3ccccc3)n2)cn1 [Example I-225] | 1000 to 10000 nM | 100 to 1000 nM |
| COc1ccccc1CNc1nc(Nc2cnn(C)c2)ncc1Cl [Example I-228] | 1000 to 10000 nM | 100 to 1000 nM |
| CNC(=O)Cn1cc(Nc2ncc(Cl)c(NCc3c(F)cccc3F)n2)cn1 [Example I-229] | 1000 to 10000 nM | 10 to 100 nM |
| [2H]C([2H])(O)C([2H])([2H])n1cc(Nc2ncc(Cl)c(NCc3c(F)cccc3F)n2)cn1 [Example I-234] | 100 to 1000 nM | 10 to 100 nM |
| [2H]C([2H])(O)C([2H])([2H])n1cc(Nc2ncc(Cl)c(NCc3cccc(OC)c3)n2)cn1 [Example I-235] | 1000 to 10000 nM | 100 to 1000 nM |
| N#CC1CCCN1C(=O)Cn1cc(Nc2ncc(Cl)c(NCc3ccccc3)n2)cn1 (centres unmarked) [Example I-237] | 100 to 1000 nM | 10 to 100 nM |
| CN(CC#N)C(=O)Cn1cc(Nc2ncc(Cl)c(NCc3ccccc3)n2)cn1 [Example I-238] | 1000 to 10000 nM | 100 to 1000 nM |
| NC(=O)Cn1cc(Nc2ncc(Cl)c(NCc3c(F)cccc3F)n2)cn1 [Example I-240] | 1000 to 10000 nM | 10 to 100 nM |
| CCNC(=O)c1cccc(CNc2nc(Nc3cnn(CCO)c3)ncc2Cl)c1 [Example I-241] | 1000 to 10000 nM | 100 to 1000 nM |
| N#CCNC(=O)c1cccc(CNc2nc(Nc3cnn(CCO)c3)ncc2Cl)c1 [Example I-242] | 1000 to 10000 nM | 100 to 1000 nM |
| OCCn1cc(Nc2ncc(Cl)c(NCc3ccc(C(F)(F)F)cc3F)n2)cn1 [Example I-245] | 10 to 100 nM | 1000 to 10000 nM |
| OCCn1cc(Nc2ncc(Cl)c(NCc3ccccn3)n2)cn1 [Example I-247] | 100 to 1000 nM | 1000 to 10000 nM |
| Clc1cnc(Nc2cnn(Cc3ncco3)c2)nc1NCc1ccccc1 [Example I-249] | 1000 to 10000 nM | 1000 to 10000 nM |
| O=C(Cn1cc(Nc2ncc(F)c(NCc3c(F)cc(F)cc3F)n2)cn1)NCC(F)(F)F [Example I-252] | > 10000 nM | 10 to 100 nM |
| CN1CCC(n2cc(Nc3ncc(Cl)c(NCc4ccccc4)n3)cn2)C1=O (centres unmarked) [Example I-253] | 100 to 1000 nM | 100 to 1000 nM |
| CS(=O)(=O)Cn1cc(Nc2ncc(Cl)c(NCc3ccccc3)n2)cn1 [Example I-254] | 1000 to 10000 nM | 100 to 1000 nM |
| C[C@@H](O)Cn1cc(Nc2ncc(Cl)c(NCc3ccccc3F)n2)cn1 [Example I-256] | 1000 to 10000 nM | 100 to 1000 nM |

| Structure (SMILES) | IC50 (JAK2) | IC50 (TYK2) |
| --- | --- | --- |
| C[C@H](O)Cn1cc(Nc2ncc(Cl)c(NCc3ccccc3F)n2)cn1 [Example I-257] | 100 to 1000 nM | 100 to 1000 nM |
| OCCn1cc(Nc2ncc(Cl)c(NCc3ncccc3F)n2)cn1 [Example I-259] | 1000 to 10000 nM | 10 to 100 nM |
| CNC(=O)Cn1cc(Nc2ncc(Cl)c(NCc3cc(Br)cc(F)c3F)n2)cn1 [Example I-262] | 100 to 1000 nM | 100 to 1000 nM |
| CN(C)C(=O)Cn1cc(Nc2ncc(Cl)c(NCc3cc(Br)cc(F)c3F)n2)cn1 [Example I-263] | 100 to 1000 nM | 100 to 1000 nM |
| OCCn1cc(Nc2ncc(Cl)c(NCc3cc(Br)cc(F)c3F)n2)cn1 [Example I-264] | 100 to 1000 nM | 100 to 1000 nM |
| OCCn1cc(Nc2ncc(Cl)c(NCc3c(F)cccc3-c3cn[nH]c3)n2)cn1 [Example I-265] | 1000 to 10000 nM | 100 to 1000 nM |
| CS(=O)(=O)c1ccccc1CNc1nc(Nc2cnn(CCO)c2)ncc1Cl [Example I-266] | 1000 to 10000 nM | 100 to 1000 nM |
| CCOc1ccc(F)c(CNc2nc(Nc3cnn(CC(=O)NC)c3)ncc2Cl)c1F [Example I-269] | 1000 to 10000 nM | 10 to 100 nM |
| N#C[C@H]1CCN(C(=O)Cn2cc(Nc3ncc(Cl)c(NCc4ccccc4)n3)cn2)C1 [Example I-270] | 1000 to 10000 nM | 10 to 100 nM |
| N#C[C@@H]1CCN(C(=O)Cn2cc(Nc3ncc(Cl)c(NCc4ccccc4)n3)cn2)C1 [Example I-271] | 100 to 1000 nM | 10 to 100 nM |
| COCCNC(=O)Cn1cc(Nc2ncc(Cl)c(NCc3ccccc3)n2)cn1 [Example I-273] | 1000 to 10000 nM | 100 to 1000 nM |
| COc1c(F)cc(F)cc1CNc1nc(Nc2cnn(C)c2)ncc1Cl [Example I-276] | 10 to 100 nM | 100 to 1000 nM |
| Cn1cc(Nc2ncc(Cl)c(NCc3cc(C(F)(F)F)ccc3Cl)n2)cn1 [Example I-278] | 1000 to 10000 nM | 100 to 1000 nM |
| CNC(=O)Cn1cc(Nc2ncc(Cl)c(NCc3cc(C(F)(F)F)ccc3F)n2)cn1 [Example I-279] | 100 to 1000 nM | 10 to 100 nM |
| CNC(=O)Cn1cc(Nc2ncc(Cl)c(NCc3cc(C(F)(F)F)ccc3Cl)n2)cn1 [Example I-280] | 100 to 1000 nM | 10 to 100 nM |
| OCCn1cc(Nc2ncc(Cl)c(NCc3cc(C(F)(F)F)ccc3F)n2)cn1 [Example I-281] | 100 to 1000 nM | 10 to 100 nM |
| Cc1ccc(F)c(CNc2nc(Nc3cnn(CC(=O)N(C)C)c3)ncc2Cl)c1F [Example I-283] | 1000 to 10000 nM | 10 to 100 nM |
| CC(C(N)=O)n1cc(Nc2ncc(Cl)c(NCc3ccccc3)n2)cn1 (centres unmarked) [Example I-285] | 1000 to 10000 nM | 100 to 1000 nM |
| N#Cc1c(F)cccc1CNc1nc(Nc2cnn(CC(N)=O)c2)ncc1Cl [Example I-286] | 100 to 1000 nM | 100 to 1000 nM |

Continued, values first:

| IC50 (JAK2) | IC50 (TYK2) | Structure (SMILES) |
| --- | --- | --- |
| 1000 to 10000 nM | 100 to 1000 nM | Fc1cccc(F)c1CNc1nc(Nc2cnn(C(F)F)c2)ncc1Cl [Example I-224] |
| 1000 to 10000 nM | 10 to 100 nM | NS(=O)(=O)c1ccc(F)c(CNc2nc(Nc3cnn(CCO)c3)ncc2Cl)c1 [Example I-226] |
| 1000 to 10000 nM | 10 to 100 nM | CNC(=O)Cn1cc(Nc2ncc(Cl)c(NCc3cccc(C#N)c3)n2)cn1 [Example I-230] |
| 1000 to 10000 nM | 100 to 1000 nM | [2H]C([2H])(O)C([2H])([2H])n1cc(Nc2ncc(Cl)c(NCc3ccccc3)n2)cn1 [Example I-231] |
| 1000 to 10000 nM | 100 to 1000 nM | [2H]C([2H])(O)C([2H])([2H])n1cc(Nc2ncc(Cl)c(NCc3cccc(F)c3)n2)cn1 [Example I-232] |
| 1000 to 10000 nM | 100 to 1000 nM | [2H]C([2H])(O)C([2H])([2H])n1cc(Nc2ncc(Cl)c(NCc3cccc(F)c3F)n2)cn1 [Example I-233] |
| 1000 to 10000 nM | 100 to 1000 nM | O=C(Cn1cc(Nc2ncc(Cl)c(NCc3ccccc3)n2)cn1)N1CC2(COC2)C1 [Example I-236] |
| 1000 to 10000 nM | 100 to 1000 nM | O=C(Cn1cc(Nc2ncc(Cl)c(NCc3ccccc3)n2)cn1)N1CCC2(CC1)COC2 [Example I-239] |
| 1000 to 10000 nM | 100 to 1000 nM | CNC(=O)Cn1cc(Nc2ncc(Cl)c(NCc3cccc(OC)c3)n2)cn1 [Example I-243] |
| 1000 to 10000 nM | 100 to 1000 nM | COc1cccc(CNc2nc(Nc3cnn(CC(=O)N(C)C)c3)ncc2Cl)c1 [Example I-244] |
| 1000 to 10000 nM | 100 to 1000 nM | Cn1ccnc1Cn1cc(Nc2ncc(Cl)c(NCc3ccccc3)n2)cn1 [Example I-248] |
| 1000 to 10000 nM | 1000 to 10000 nM | Cn1ncnc1Cn1cc(Nc2ncc(Cl)c(NCc3ccccc3)n2)cn1 [Example I-250] |
| 1000 to 10000 nM | 10 to 100 nM | CN(C)C(=O)Cn1cc(Nc2ncc(F)c(NCc3c(Cl)cccc3Cl)n2)cn1 [Example I-251] |
| 1000 to 10000 nM | 100 to 1000 nM | OCCn1cc(Nc2ncc(Cl)c(NCc3cccnc3)n2)cn1 [Example I-255] |
| 100 to 1000 nM | 100 to 1000 nM | Cn1cc(Nc2ncc(Cl)c(NCc3cncc(F)c3)n2)cn1 [Example I-258] |
| 1000 to 10000 nM | 100 to 1000 nM | Cn1cc(Nc2ncc(Cl)c(NCc3ncccc3F)n2)cn1 [Example I-260] |
| 100 to 1000 nM | 100 to 1000 nM | NC(=O)Cn1cc(Nc2ncc(Cl)c(NCc3cc(Br)cc(F)c3F)n2)cn1 [Example I-261] |
| 100 to 1000 nM | 10 to 100 nM | CCOc1ccc(F)c(CNc2nc(Nc3cnn(CC(N)=O)c3)ncc2Cl)c1F [Example I-267] |
| 1000 to 10000 nM | 10 to 100 nM | CCOc1ccc(F)c(CNc2nc(Nc3cnn(CC(=O)N(C)C)c3)ncc2Cl)c1F [Example I-268] |
| 1000 to 10000 nM | 100 to 1000 nM | N#C[C@@H]1CCCN1C(=O)Cn1cc(Nc2ncc(Cl)c(NCc3ccccc3)n2)cn1 [Example I-272] |
| 1000 to 10000 nM | 10 to 100 nM | N#CC1CN(C(=O)Cn2cc(Nc3ncc(Cl)c(NCc4ccccc4)n3)cn2)C1 [Example I-274] |
| 1000 to 10000 nM | 100 to 1000 nM | O=C(O)Cn1cc(Nc2ncc(Cl)c(NCc3cc(F)cc(C(F)(F)F)c3)n2)cn1 [Example I-275] |
| 1000 to 10000 nM | 100 to 1000 nM | Cn1cc(Nc2ncc(Cl)c(NCc3cc(C(F)(F)F)ccc3F)n2)cn1 [Example I-277] |
| 1000 to 10000 nM | 10 to 100 nM | Cc1ccc(F)c(CNc2nc(Nc3cnn(CC(N)=O)c3)ncc2Cl)c1F [Example I-282] |
| 1000 to 10000 nM | 10 to 100 nM | CNC(=O)Cn1cc(Nc2ncc(Cl)c(NCc3c(F)ccc(C)c3F)n2)cn1 [Example I-284] |
| 100 to 1000 nM | 100 to 1000 nM | N#Cc1c(F)cccc1CNc1nc(Nc2cnn(CCO)c2)ncc1Cl [Example I-287] |
| 1000 to 10000 nM | 100 to 1000 nM | NC(=O)Cn1cc(Nc2ncc(Cl)c(NCc3ccccc3CO)n2)cn1 [Example I-288] |
| 1000 to 10000 nM | 1000 to 10000 nM | CS(=O)(=O)CCn1cc(Nc2ncc(Cl)c(NCc3ccccc3)n2)cn1 [Example I-289] |
| 1000 to 10000 nM | 100 to 1000 nM | C[C@H](C(N)=O)n1cc(Nc2ncc(Cl)c(NCc3ccccc3)n2)cn1 [Example I-290] |
